From patent US10202361B2, “Pyridazinones as herbicides” (E I DU PONT DE NEMOURS AND COMPANY, priority 2014, dated 2019)

Legend:
Type in all cases: in vivo
[1] = test system: sedge, umbrella (small-flower umbrella sedge, Cyperus difformis); experiment: Test B flooded paddy test; settings: Flood, scale of 0 to 100, 0 is no effect, 100 is complete control, 13 to 15 d
Procedure: (§1) Plant species in the flooded paddy test selected from rice (Oryza sativa), small-flower sedge, umbrella (small-flower umbrella sedge, Cyperus difformis), ducksalad (Heteranthera limosa), and barnyardgrass (Echinochloa crus-galli) were grown to the 2-leaf stage for testing. At time of treatment, test pots were flooded to 3 cm above the soil surface, treated by application of test compounds directly to the paddy water, and then maintained at that water depth for the duration of the test. Treated plants and controls were maintained in a greenhouse for 13 to 15 d, after which time all species were compared to controls and visually evaluated. Plant response ratings, summarized in Table B, are based on a scale of 0 to 100 where 0 is no effect and 100 is complete control. A dash (-) response means no test result.

rice (Oryza sativa) = experiment: Test B flooded paddy test; settings: Flood, scale of 0 to 100, 0 is no effect, 100 is complete control, 13 to 15 d
Procedure: as §1

[2] = test system: ducksalad (Heteranthera limosa); experiment: Test B flooded paddy test; settings: Flood, scale of 0 to 100, 0 is no effect, 100 is complete control, 13 to 15 d
Procedure: as §1

[3] = test system: barnyardgrass (Echinochloa crus-galli); experiment: Test B flooded paddy test; settings: Flood, scale of 0 to 100, 0 is no effect, 100 is complete control, 13 to 15 d
Procedure: as §1

[4] = test system: morningglory (Ipomoea spp.); experiment: Test A pre-/postemergence greenhouse herbicide test; settings: 0 to 100 scale (0 no effect, 100 complete control), approx. 10 d
Source text: (§2) Seeds of plant species selected from barnyardgrass (Echinochloa crus-galli), crabgrass, Large (large crabgrass, Digitaria sanguinalis), foxtail, giant (giant foxtail, Setaria faberii), morningglory (Ipomoea spp.), pigweed (Amaranthus retroflexus), velvetleaf (Abutilon theophrasti), wheat (Triticum aestivum), and corn (Zea mays) were planted into a blend of loam soil and sand and treated preemergence with a directed soil spray using test chemicals formulated in a non-phytotoxic solvent mixture which included a surfactant. At the same time these species were also treated with postemergence applications of test chemicals formulated in the same manner.
(§3) Plants ranged in height from 2 to 10 cm and were in the one- to two-leaf stage for the postemergence treatment. Treated plants and untreated controls were maintained in a greenhouse for approximately 10 d, after which time all treated plants were compared to untreated controls and visually evaluated for injury. Plant response ratings, summarized in Table A, are based on a 0 to 100 scale where 0 is no effect and 100 is complete control. A dash (-) response means no test result.

[5] = test system: velvetleaf (Abutilon theophrasti); experiment: as above; settings: 0 to 100 scale (0 no effect, 100 complete control), approx. 10 d
Source text: as §2, §3

[6] = test system: pigweed (Amaranthus retroflexus); experiment: as above; settings: 0 to 100 scale (0 no effect, 100 complete control), approx. 10 d
Source text: as §2, §3

[7] = test system: foxtail, giant (giant foxtail, Setaria faberii); experiment: as above; settings: 0 to 100 scale (0 no effect, 100 complete control), approx. 10 d
Source text: as §2, §3

corn (Zea mays) = experiment: as above; settings: 0 to 100 scale (0 no effect, 100 complete control), approx. 10 d
Source text: as §2, §3

[8] = test system: crabgrass, Large (large crabgrass, Digitaria sanguinalis); experiment: as above; settings: 0 to 100 scale (0 no effect, 100 complete control), approx. 10 d
Source text: as §2, §3

[9] = test system: wheat (Triticum aestivum); experiment: as above; settings: 0 to 100 scale (0 no effect, 100 complete control), approx. 10 d
Source text: as §2, §3

[10] = test system: barnyardgrass (Echinochloa crus-galli); experiment: as above; settings: 0 to 100 scale (0 no effect, 100 complete control), approx. 10 d
Source text: as §2, §3

| SMILES | Plant response rating, Morningglory ([4]; Postemergence, 125 g ai/ha) | Plant response rating, Morningglory ([4]; Postemergence, 500 g ai/ha) | Plant response rating, Morningglory ([4]; Preemergence, 125 g ai/ha) | Plant response rating, Morningglory ([4]; Preemergence, 500 g ai/ha) | Plant response rating, Velvetleaf ([5]; Postemergence, 125 g ai/ha) | Plant response rating, Velvetleaf ([5]; Postemergence, 500 g ai/ha) | Plant response rating, Velvetleaf ([5]; Preemergence, 125 g ai/ha) | Plant response rating, Velvetleaf ([5]; Preemergence, 500 g ai/ha) | Plant response rating, Pigweed ([6]; Postemergence, 125 g ai/ha) | Plant response rating, Pigweed ([6]; Postemergence, 500 g ai/ha) | Plant response rating, Pigweed ([6]; Preemergence, 125 g ai/ha) | Plant response rating, Pigweed ([6]; Preemergence, 500 g ai/ha) | Plant response rating, Foxtail, Giant ([7]; Postemergence, 125 g ai/ha) | Plant response rating, Foxtail, Giant ([7]; Postemergence, 500 g ai/ha) | Plant response rating, Foxtail, Giant ([7]; Preemergence, 125 g ai/ha) | Plant response rating, Foxtail, Giant ([7]; Preemergence, 500 g ai/ha) | Plant response rating, Corn (corn (Zea mays); Postemergence, 125 g ai/ha) | Plant response rating, Corn (corn (Zea mays); Postemergence, 500 g ai/ha) | Plant response rating, Corn (corn (Zea mays); Preemergence, 125 g ai/ha) | Plant response rating, Corn (corn (Zea mays); Preemergence, 500 g ai/ha) | further results |
| --- | --- | --- | --- | --- | --- | --- | --- | --- | --- | --- | --- | --- | --- | --- | --- | --- | --- | --- | --- | --- | --- |
| Cc1cc(=O)n(-c2cccc(C(F)(F)F)c2)nc1Oc1ccnc(C(F)(F)F)c1 [Compound 4] | 40 | 70 | 20 | 40 | 90 | 100 | 10 | 20 | 100 | 100 | 100 | 100 | 30 | 70 | 70 | 100 | 10 | 30 | 0 | 10 | Plant response rating, Sedge, Umbrella ([1]; 125 g ai/ha): 70; Plant response rating, Rice (rice (Oryza sativa); 125 g ai/ha): 40; Plant response rating, Ducksalad ([2]; 125 g ai/ha): 65; Plant response rating, Barnyardgrass ([3]; 125 g ai/ha): 20; Plant response rating, Crabgrass, Large ([8]; Postemergence, 125 g ai/ha): 30; Plant response rating, Crabgrass, Large ([8]; Postemergence, 500 g ai/ha): 60; Plant response rating, Crabgrass, Large ([8]; Preemergence, 125 g ai/ha): 90; Plant response rating, Crabgrass, Large ([8]; Preemergence, 500 g ai/ha): 100; Plant response rating, Wheat ([9]; Postemergence, 125 g ai/ha): 10; Plant response rating, Wheat ([9]; Postemergence, 500 g ai/ha): 20; Plant response rating, Wheat ([9]; Preemergence, 125 g ai/ha): 0; Plant response rating, Wheat ([9]; Preemergence, 500 g ai/ha): 10; Plant response rating, Barnyardgrass ([10]; Postemergence, 125 g ai/ha): 10; Plant response rating, Barnyardgrass ([10]; Postemergence, 500 g ai/ha): 20; Plant response rating, Barnyardgrass ([10]; Preemergence, 125 g ai/ha): 10; Plant response rating, Barnyardgrass ([10]; Preemergence, 500 g ai/ha): 40 |
| O=c1c2c(c(Oc3ccnc(C(F)(F)F)c3)nn1-c1ccc(Cl)cc1)CCCC2 [Compound 7] | 10 | 20 | 0 | 0 | 20 | 40 | 0 | 0 | 90 | 100 | 20 | 50 | 10 | 10 | 0 | 30 | 10 | 10 | 0 | 0 | Plant response rating, Sedge, Umbrella ([1]; 125 g ai/ha): 0; Plant response rating, Rice (rice (Oryza sativa); 125 g ai/ha): 0; Plant response rating, Ducksalad ([2]; 125 g ai/ha): 0; Plant response rating, Barnyardgrass ([3]; 125 g ai/ha): 0; Plant response rating, Crabgrass, Large ([8]; Postemergence, 125 g ai/ha): 10; Plant response rating, Crabgrass, Large ([8]; Postemergence, 500 g ai/ha): 10; Plant response rating, Crabgrass, Large ([8]; Preemergence, 125 g ai/ha): 0; Plant response rating, Crabgrass, Large ([8]; Preemergence, 500 g ai/ha): 40; Plant response rating, Wheat ([9]; Postemergence, 125 g ai/ha): 0; Plant response rating, Wheat ([9]; Postemergence, 500 g ai/ha): 10; Plant response rating, Wheat ([9]; Preemergence, 125 g ai/ha): 0; Plant response rating, Wheat ([9]; Preemergence, 500 g ai/ha): 0; Plant response rating, Barnyardgrass ([10]; Postemergence, 125 g ai/ha): 0; Plant response rating, Barnyardgrass ([10]; Postemergence, 500 g ai/ha): 10; Plant response rating, Barnyardgrass ([10]; Preemergence, 125 g ai/ha): 0; Plant response rating, Barnyardgrass ([10]; Preemergence, 500 g ai/ha): 40 |
| Cc1cc(=O)n(-c2ccc(F)cc2)nc1Cc1cccc(C(F)(F)F)c1 [Compound 8] | 80 | 80 | 0 | 0 | 20 | 80 | 0 | 0 | 90 | 100 | 90 | 100 | 50 | 90 | 80 | 90 | 20 | 40 | 0 | 0 | Plant response rating, Sedge, Umbrella ([1]; 250 g ai/ha): 75; Plant response rating, Rice (rice (Oryza sativa); 250 g ai/ha): 25; Plant response rating, Ducksalad ([2]; 250 g ai/ha): 0; Plant response rating, Barnyardgrass ([3]; 250 g ai/ha): 20; Plant response rating, Crabgrass, Large ([8]; Postemergence, 125 g ai/ha): 40; Plant response rating, Crabgrass, Large ([8]; Postemergence, 500 g ai/ha): 90; Plant response rating, Crabgrass, Large ([8]; Preemergence, 125 g ai/ha): 90; Plant response rating, Crabgrass, Large ([8]; Preemergence, 500 g ai/ha): 100; Plant response rating, Wheat ([9]; Postemergence, 125 g ai/ha): 10; Plant response rating, Wheat ([9]; Postemergence, 500 g ai/ha): 20; Plant response rating, Wheat ([9]; Preemergence, 125 g ai/ha): 0; Plant response rating, Wheat ([9]; Preemergence, 500 g ai/ha): 0; Plant response rating, Barnyardgrass ([10]; Postemergence, 125 g ai/ha): 20; Plant response rating, Barnyardgrass ([10]; Postemergence, 500 g ai/ha): 50; Plant response rating, Barnyardgrass ([10]; Preemergence, 125 g ai/ha): 20; Plant response rating, Barnyardgrass ([10]; Preemergence, 500 g ai/ha): 80 |
| Cc1cc(Oc2cc(C(F)(F)F)ccn2)nn(-c2ccc(F)cc2)c1=O [Compound 9] | 0 | 0 | 0 | 0 | 0 | 0 | 0 | 0 | 0 | 0 | 0 | 0 | 0 | 0 | 0 | 0 | 0 | 0 | 0 | 0 | Plant response rating, Sedge, Umbrella ([1]; 250 g ai/ha): 0; Plant response rating, Rice (rice (Oryza sativa); 250 g ai/ha): 0; Plant response rating, Ducksalad ([2]; 250 g ai/ha): 0; Plant response rating, Barnyardgrass ([3]; 250 g ai/ha): 0; Plant response rating, Crabgrass, Large ([8]; Postemergence, 125 g ai/ha): 0; Plant response rating, Crabgrass, Large ([8]; Postemergence, 500 g ai/ha): 0; Plant response rating, Crabgrass, Large ([8]; Preemergence, 125 g ai/ha): 0; Plant response rating, Crabgrass, Large ([8]; Preemergence, 500 g ai/ha): 0; Plant response rating, Wheat ([9]; Postemergence, 125 g ai/ha): 0; Plant response rating, Wheat ([9]; Postemergence, 500 g ai/ha): 0; Plant response rating, Wheat ([9]; Preemergence, 125 g ai/ha): 0; Plant response rating, Wheat ([9]; Preemergence, 500 g ai/ha): 0; Plant response rating, Barnyardgrass ([10]; Postemergence, 125 g ai/ha): 0; Plant response rating, Barnyardgrass ([10]; Postemergence, 500 g ai/ha): 0 |
